Tests used:
Wnt-C59 = compound: CC1=NC=CC(=C1)C2=CC=C(C=C2)CC(=O)NC3=CC=C(C=C3)C4=CN=CC=C4 [Wnt-C59]; test: relative viability (nuclei count vs DMSO), 5 days (fraction); higher = more cells survive
Summary of the method: (§1)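 Lung cancer cell lines received five library-drug doses (not always all listed) spaced by √10, pinned on vehicle-anchored 1536-well plates after an overnight stay at 37 °C. Five days later, with no medium change, nuclei were Hoechst-stained, imaged at 4× and counted with MetaXpress. Viability is treated-well nuclei relative to vehicle-well nuclei, as a median across plates. Passing plates had control CV below 25% and at least one doubling.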

Lapatinib = compound: CS(=O)(=O)CCNCc1ccc(-c2ccc3ncnc(Nc4ccc(OCc5cccc(F)c5)c(Cl)c4)c3c2)o1 [Lapatinib]; test: as above
Summary of the method: as §1

UMC-11
relative viability (Wnt-C59; 0.001 µM): 0.909 | relative viability (Wnt-C59; 0.01 µM): 1.04 | relative viability (Wnt-C59; 0.03162 µM): 1.08 | relative viability (Wnt-C59; 0.1 µM): 1.03 | relative viability (Lapatinib; 0.02 µM): 0.906 | relative viability (Lapatinib; 0.06325 µM): 0.935 | relative viability (Lapatinib; 0.2 µM): 1.02 | relative viability (Lapatinib; 0.6325 µM): 0.998 | relative viability (Lapatinib; 2 µM): 0.942 | relative viability (Lapatinib; 2 µM, anchor plate): 1.02
